In patent US6518423B1, “Benzopiperidine derivatives” (Eisai Co., Ltd., priority 1996, dated 2003):

Row | melting point | SMILES
1 | 231 to 233 °C | FC(F)(F)c1nccn1Cc1ccc2c(c1)Nc1nccnc1S2
2 | 216 to 218 °C | c1ccc(-c2cn(Cc3ccc4c(c3)Nc3nccnc3S4)cn2)cc1
3 | > 290 °C | C/C(=C\c1ncn(Cc2ccc3c(c2)Nc2nccnc2S3)c1C)C(=O)O
4 | 240 to 241 °C | O=C(O)c1ccc(C(O)c2nccn2Cc2ccc3c(c2)Nc2nccnc2S3)cc1 (stereo not shown)
5 | 98 to 101 °C | O=C(O)C1CC2(C1)C1CCCC2CN(Cc2ccc3c(c2)Nc2nccnc2S3)C1 (stereo not shown)
6 | 197 to 198 °C | c1ccn(Cc2ccc3c(c2)Nc2nccnc2S3)c1
7 | 179 to 183 °C | c1cc(CCc2ccc3c(c2)Nc2nccnc2S3)ccn1
8 | 180 to 181 °C | CC(c1cccnc1)c1ccc2c(c1)Nc1nccnc1S2 (stereo not shown)
9 | 156 to 158 °C | OC(CCc1ccccc1)c1ccc2c(c1)Nc1nccnc1S2 (stereo not shown)
10 | 228 to 233 °C | CC(C(=O)O)c1ccc(NCc2ccc3c(c2)Nc2nccnc2S3)cc1.Cl (stereo not shown)
11 | 243 to 245 °C (dec.) | O=C(NCc1ccc2c(c1)Nc1nccnc1S2)c1cccnc1
12 | 231 to 233 °C | CN(C)c1ncnc2c1nc(C(F)(F)F)n2Cc1ccc2c(c1)Nc1nccnc1S2
13 | 238 to 240 °C | O=C(O)C1CCN(c2ncnc3c2ncn3Cc2ccc3c(c2)Nc2nccnc2S3)CC1
14 | 213 to 214 °C | c1ccc(CN2CCN(c3ncnc4c3ncn4Cc3ccc4c(c3)Nc3nccnc3S4)CC2)cc1
15 | 143 to 145 °C | CC(C)(O)c1ncnc2c1ncn2Cc1ccc2c(c1)Nc1nccnc1O2
16 | > 280 °C | Cl.N=C(N)c1ccc2c(c1)Nc1nccnc1S2
17 | 206 to 207 °C | N/C(Cc1ccc2c(c1)Nc1nccnc1S2)=N\S(=O)(=O)c1ccccc1
18 | > 280 °C | CN1CCCN=C1Cc1ccc2c(c1)Nc1nccnc1S2.Cl
19 | 156 to 163 °C | Cl.OC1CN=C(Cc2ccc3c(c2)Nc2nccnc2S3)NC1 (stereo not shown)
20 | 160 to 162 °C | COC(=O)CC1C2CCCC1CN(Cc1ccc3c(c1)N(C(C)=O)c1nccnc1S3)C2 (stereo not shown)

Row | melting point | SMILES
21 | 194 to 196 °C | CC(=O)NCCC1CCN(Cc2ccc3c(c2)Nc2nccnc2S3)CC1
22 | 172 to 174 °C | COC1CCN(Cc2ccc3c(c2)Nc2nccnc2S3)CC1
23 | 194 to 197 °C | NC(=O)C1CCCN1Cc1ccc2c(c1)Nc1nccnc1S2 (stereo not shown)
24 | 221 to 222 °C | CS(=O)(=O)N1CCN(Cc2ccc3c(c2)Nc2nccnc2S3)CC1
25 | 190 to 191 °C | O=C(CCCC1CCN(Cc2ccc3c(c2)Nc2nccnc2S3)CC1)Nc1nnn[nH]1
26 | 258 to 262 °C | O=C(O)COc1ccc(C2CCN(Cc3ccc4c(c3)Nc3nccnc3S4)CC2)cc1
27 | 230 to 232 °C | CC(C)(CC(=O)O)CC1CCN(Cc2ccc3c(c2)Nc2nccnc2S3)CC1
28 | 105 to 110 °C | CC(CCC1(CO)CCN(Cc2ccc3c(c2)Nc2nccnc2S3)CC1)C(=O)O (stereo not shown)
29 | 133 to 135 °C | CCCCC1(CC(=O)O)CC2(CCN(Cc3ccc4c(c3)Nc3nccnc3S4)CC2)C1
30 | 167 to 173 °C | O=C(O)C(F)=C1CCN(Cc2ccc3c(c2)Nc2nccnc2S3)CC1
31 | 171 to 177 °C (dec.) | COc1cc(C2CCN(Cc3ccc4c(c3)Nc3nccnc3S4)CC2)ccc1CC(=O)O
32 | 124 to 128 °C | O=C(O)CC1=CCN(Cc2ccc3c(c2)Nc2nccnc2S3)CC1
33 | 185 to 188 °C | COCN1c2ccccc2Nc2nccnc21
34 | 275 °C | CN1c2ccc(/C=C/C(=O)O)cc2Nc2nccnc21
35 | 261 to 262 °C | CN1c2ccc(C(=O)c3ccccn3)cc2Nc2nccnc21
36 | > 275 °C | CN1c2ccc(CNC(N)=O)cc2Nc2nccnc21
37 | 232 to 235 °C | c1cnc(NCc2ccc3c(c2)Nc2nccnc2S3)nc1
38 | 162 to 165 °C | Cc1cc(C)nc(NCc2ccc3c(c2)Nc2nccnc2S3)c1
39 | 148 to 152 °C | CCc1cc(NCc2ccc3c(c2)Nc2nccnc2S3)ccn1
40 | 178 to 182 °C | O=C(c1ccccc1)N(Cc1ccc2c(c1)Nc1nccnc1S2)c1cccnc1
